For nine compounds, MIC results are on record in ChEMBL document CHEMBL5226286, “The application of isatin-based multicomponent-reactions in the quest for new bioactive and druglike molecules” (Eur J Med Chem, 2021).

Values after ≈ are worked out from the molar mass of the structure shown.

In assay [1] the test system is Mycobacterium tuberculosis variant bovis. As to the kind of experiment: Antimycobacterial activity against active stage of Mycobacterium bovis BCG ATCC 35743 assessed as minimum inhibitory concentration by NR assay. Type of assay: functional.
Assay [2] shares this test system. As to the kind of experiment: Antimycobacterial activity against dormant stage of Mycobacterium bovis BCG ATCC 35743 assessed as minimum inhibitory concentration by NR assay. Type of assay: functional.

With `Cc1ccc(Cn2cc(CN3C(=O)C4(C(C#N)=C(N)Oc5cc(C)oc(=O)c54)c4cc(Cl)ccc43)nn2)cc1` (stereo not drawn), the values for the MIC in assay [1] and in assay [2] were 5.24 µg/mL (≈ 9.69 µM) and 5.23 µg/mL (≈ 9.67 µM), respectively.

Turning to `Cc1cc2c(c(=O)o1)C1(C(=O)N(Cc3cn(Cc4ccc(Cl)cc4)nn3)c3ccc(Br)cc31)C(C#N)=C(N)O2` (stereo not drawn), the MIC was found to be 4.12 µg/mL (≈ 6.8 µM) in assay [1] and 3.97 µg/mL (≈ 6.55 µM) in assay [2].

In the case of `Cc1ccc(Cn2cc(CN3C(=O)C4(C(C#N)=C(N)Oc5cc(C)oc(=O)c54)c4ccccc43)nn2)cc1` (stereo not drawn), the minimal inhibitory concentration (MIC) came out at 7.42 µg/mL (≈ 14.6 µM) in assay [1] and 5.36 µg/mL (≈ 10.6 µM) in assay [2].

For `Cc1cc2c(c(=O)o1)C1(C(=O)N(Cc3cn(Cc4ccc(Cl)cc4)nn3)c3ccccc31)C(C#N)=C(N)O2` (stereo not drawn), the MIC worked out at 2.97 µg/mL (≈ 5.64 µM) in assay [1] and 4.35 µg/mL (≈ 8.26 µM) in assay [2].

Turning to `Cc1cc2c(c(=O)o1)C1(C(=O)N(Cc3cn(Cc4ccc(Cl)cc4)nn3)c3ccc(Cl)cc31)C(C#N)=C(N)O2` (stereo not drawn), the MIC amounted to 3.04 µg/mL (≈ 5.42 µM) in assay [1] and 7.73 µg/mL (≈ 13.8 µM) in assay [2].

For the compound `CC1(C)CC(=O)C2=C(C1)OC(N)=C(C#N)C21C(=O)N(Cc2cn(Cc3ccc(Cl)cc3)nn2)c2ccc(Cl)cc21` (stereo not drawn), the MIC in assay [1] was determined as 2.87 µg/mL (≈ 4.99 µM); in assay [2] it was 3.09 µg/mL (≈ 5.37 µM).

For the compound `Cc1ccc(Cn2cc(CN3C(=O)C4(C(C#N)=C(N)OC5=C4C(=O)CC(C)(C)C5)c4cc(Br)ccc43)nn2)cc1` (stereo not drawn), the results for the MIC in assay [1] and in assay [2] were 2.87 µg/mL (≈ 4.79 µM) and 6.23 µg/mL (≈ 10.4 µM), respectively.

In the case of `CC1(C)CC(=O)C2=C(C1)OC(N)=C(C#N)C21C(=O)N(Cc2cn(Cc3ccc(Cl)cc3)nn2)c2ccc(Br)cc21` (stereo not drawn), the MIC in assay [1] was 4.32 µg/mL (≈ 6.97 µM); in assay [2], 3.16 µg/mL (≈ 5.1 µM).

As for `CO[C@H]1/C=C/O[C@@]2(C)Oc3c(C)c(O)c4c(O)c(c(/C=N/N5CCN(C)CC5)c(O)c4c3C2=O)NC(=O)/C(C)=C\C=C\[C@H](C)[C@H](O)[C@@H](C)[C@@H](O)[C@@H](C)[C@H](OC(C)=O)[C@@H]1C` [RIFAMPIN], the results for the MIC in assay [1] and in assay [2] were 0.45 µg/mL (≈ 0.547 µM) and 0.81 µg/mL (≈ 0.984 µM), respectively.

As usually defined, the MIC is the least concentration at which growth counts as inhibited.
